From patent US20100093624A1, “PEPTIDE THERAPEUTICS THAT BIND VEGF AND METHODS OF USE THEREOF” (Cosmix Therapeutics LLC, priority 2008, published 2010)
“Also recorded” adds a separate entry of the source. Non-standard residues stand in square brackets, D forms with d. Residues, ends and D or L forms follow the SMILES beside them. No end group written: not given here. PEG = not defined here

Assays:
VEGF165 [1] = target: T1, VEGF165 (Homo sapiens, UniProt P15692); experiment: VEGF ELISA of biotin-tagged D-peptides; assay type: binding; conditions: VEGF165 coated wells, streptavidin/HRP detection
T1 construct: purchased
T1 sequence (P15692 27-191 isoform P15692-4 limits assumed): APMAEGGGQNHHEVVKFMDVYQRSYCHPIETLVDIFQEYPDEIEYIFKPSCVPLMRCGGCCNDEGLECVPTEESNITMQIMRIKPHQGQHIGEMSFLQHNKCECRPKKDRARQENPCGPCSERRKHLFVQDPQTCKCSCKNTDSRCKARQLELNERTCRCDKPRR
Procedure: An ELISA method was developed in which commercially available VEGF165 was coated into ELISA plate wells (MaxiSorb). Biotin-tagged D-peptides (or an anti-VEGF monoclonal antibody, BAF293, R & D Systems) were then added. After washing binding of peptides or antibody to VEGF was determined by treatment with a streptavidin/HRP conjugate which allows colorimetric detection of the presence of the biotin tagged peptides or antibody (see FIG. 3).

D-VEGF [2] = experiment: Equilibrium bead-binding assay; conditions: bead-bound peptide, silver-stained SDS-PAGE
Procedure: (§1) A quick, qualitative binding assay was devised in which biotin-tagged peptides are immobilized onto streptavidin-coated magnetic beads. The bead-bound peptides are then treated with VEGF (either synthetic or commercially available VEGF 165). After washing the beads are then boiled in denaturing buffer to release bound VEGF which is then detected by silver-stained SDS-PAGE gel (see FIG. 4).

L-VEGF = target: T2, L-VEGF (Homo sapiens, UniProt P15692); experiment: Equilibrium bead-binding assay; conditions: bead-bound peptide, silver-stained SDS-PAGE
T2 construct: VEGF (8-50)-thioester; VEGF (51-101)-thioester; made in house; host or cells: chemical synthesis (Boc SPPS, ligation of two peptides, oxidative folding)
T2 sequence (P15692 214-315): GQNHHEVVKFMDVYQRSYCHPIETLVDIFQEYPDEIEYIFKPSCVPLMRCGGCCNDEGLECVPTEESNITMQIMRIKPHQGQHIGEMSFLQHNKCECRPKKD
Procedure: as §1

VEGF165 [3] = target: T1, VEGF165; experiment: Equilibrium bead-binding assay; conditions: bead-bound peptide, silver-stained SDS-PAGE
Procedure: as §1

VEGF165 binding to KDR = target: T3, VEGF165 binding to KDR (Homo sapiens, UniProt P15692); experiment: Receptor ELISA (KDR)
T3 sequence (P15692 27-191 isoform P15692-4 limits assumed): T1 sequence (P15692 27-191 isoform P15692-4 limits assumed)

HUVEC cells = experiment: HUVEC cell-proliferation assay; assay type: cell-based, human; conditions: for inhibition of HUVEC growth: tritium-labeled thymidine
Text: Initial investigation into the biological activity of the peptides involved use of a HUVEC cell-proliferation assay. A contractor (ReliaTech, Braunschweig, Germany) with considerable experience in this assay was employed to carry it out. ReliaTech's assay employed a radiation-based system to detect cell growth by monitoring DNA synthesis using tritium-labeled thymidine.
In this assay, pregrown, starved HUVEC cells proliferate in response to exposure to VEGF or bFGF. Inhibition of VEGF activity will result in a measurable decrease in cell proliferation. […] The effects seen for other peptide sequences were attributed to the DMSO content of their stock solutions (DMSO was required to solubilize all peptides in this assay except for 07-D60).

[4] = target: T4, rh-VEGF165 binding to Flt-1 (Homo sapiens, UniProt P15692); experiment: Receptor ELISA (Flt-1)
T4 sequence (P15692 27-191 isoform P15692-4 limits assumed): T1 sequence (P15692 27-191 isoform P15692-4 limits assumed)
Text: VEGF acts on two distinct receptors in-vivo, Flt-1 (VEGFR1) and KDR (VEGFR2). The majority of pro-angiogenic signaling appears to be mediated by KDR. Flt-1 binds to VEGF isoforms with a higher affinity than KDR and may serve a largely regulatory role in vivo. […] These studies have been extended using ELISA assays on VEGF Flt-1 binding. In this experiment a soluble fusion of Flt-1 was coated onto Costar ELISA plates. After blocking (2% BSA), solutions of rh-VEGF165 containing serial dilutions of peptide test articles were added. Detection was accomplished using a biotinylated anti-VEGF antibody in combination with a streptavidin-HRP conjugate. The results of the Flt-1 assay are shown in FIG. 6 along with previous results from the analogous KDR assay for comparison.

D-VEGF [5] = experiment: ELISA of L-peptides from affinity maturation selection; assay type: binding; conditions: 25 nM, also 5M, 100 nM, 50 nM and 5 nM
Procedure: FIG. 15 depicts an ELISA analysis of peptides deriving from sequences of the affinity maturation mRNA display selection at 25 nM. […] Then the plates were incubated with 25 nM of peptides 07-007, 07-071 and 07-072 respectively in HBS buffer for one hour at room temperature followed by 4× washes with HBS buffer. Detection with Streptavidin-Peroxidase stained with o-Phenylendiamin and H2O2 for 3 minutes.
Then the plates were incubated with either 5 μM or 100 nM of peptides 07-007, 07-071 and 07-072 respectively in HBS buffer for one hour at room temperature followed by 4× washes with HBS buffer. Detection with Streptavidin-Peroxidase stained with o-Phenylendiamin and H2O2 for 3 minutes.
Then the plates were incubated either with 50 nM or 5 nM of peptides 07-007, 07-071 and 07-072 respectively in HBS buffer for one hour at room temperature followed by 4× washes with HBS buffer. Detection with Streptavidin-Peroxidase stained with o-Phenylendiamin and H2O2 for 3 minutes.
Then the plates were incubated with 25 nM of peptides 07-007, 07-071 and 07-072 respectively in HBS buffer for one hour at room temperature followed by 4× washes with HBS buffer.

[6] = system: VEGF-dependent cell growth; experiment: VEGF-dependent cell growth assay; assay type: cell-based
[7] = target: D-VEGF (synthetic VEGF receptor binding domain, residues 8-109, made of D-amino acids) (Homo sapiens (Human)) (UniProt P15692); experiment: judged from ELISA signals on coated D-VEGF at 5 nM to 5 uM peptide; reference 07-007

Molecule: CC(C)C[C@@H](NC(=O)[C@@H](CCCNC(=N)N)NC(=O)[C@H](NC(=O)CNC(=O)[C@@H](CCCNC(=N)N)NC(=O)[C@@H](Cc1c[nH]cn1)NC(=O)[C@@H](Cc1ccccc1)NC(=O)[C@H]1CCCN1C(=O)[C@@H](CC(C)C)NC(=O)[C@@H](CC(C)C)NC(=O)[C@H](NC(=O)[C@@H](Cc1c[nH]c2ccccc12)NC(=O)[C@@H](CO)NC(=O)CNC(=O)[C@@H](CC(C)C)NC(=O)[C@H](NC(=O)[C@@H](CO)NC(=O)[C@@H](CO)NC(=O)[C@H](NC(=O)[C@@H](CC(=O)O)NC(=O)[C@@H](CCC(=O)O)NC(=O)[C@@H](CCC(N)=O)NC(=O)[C@H](NC(=O)CN)C(C)C)C(C)C)[C@H](C)O)C(C)C)[C@H](C)O)C(=O)N[C@H](CO)C(=O)N[C@@H](C(=O)N[C@H](Cc1c[nH]c2ccccc12)C(=O)N[C@@H](C(=O)N[C@@H](C(N)=O)[C@H](C)O)C(C)C)C(C)C [Peptide G2226] (H-G[dV][dQ][dE][dD][dV][dS][dS][dT][dL]G[dS][dW][dV][dL][dL][dP][dF][dH][dR]G[dT][dR][dL][dS][dV][dW][dV][dT]-NH2; N-terminus and C-terminus assumed)
- binding to VEGF165 (VEGF165 [1]): bind tightly; also recorded: best affinity
- binding to D-VEGF (D-VEGF [2]): no detectable affinity
- binding to L-VEGF (L-VEGF): binds only to L-VEGF; also recorded: found to bind
- binding to commercially available VEGF 165 (VEGF165 [3]): found to bind
- block of VEGF binding in the receptor ELISA (VEGF165 binding to KDR; receptor not specified): does not appear to block VEGF binding
- activity in cell-based assays (HUVEC cells): does not appear to be active

Molecule: Avastin: Genentech's anti-VEGF antibody [reference compound]
- inhibition of HUVEC growth (HUVEC cells): strong inhibition

Molecule: GNALHWVCASNICWRPPWAGRLWGLVRLT [Peptide 07-D60, a modification of G2257]
- inhibition of HUVEC growth compared with Avastin (HUVEC cells; 10 micromolar peptide vs 67 nM Avastin): approaches that for 67 nM Avastin
- inhibition of HUVEC growth (HUVEC cells): inhibit HUVEC growth in a dose dependent manner; also recorded: inhibit HUVEC cell growth; also recorded: block HUVEC growth in a dose-dependent manner

Molecule: GNALHWVCASNICWRPPWAGRLWGLVRLT [Peptide G2257]
- inhibition of VEGF binding to KDR (VEGF165 binding to KDR; receptor ELISA): inhibition of VEGF binding; also recorded: capable of inhibiting VEGF binding to KDR; also recorded: inhibits binding
- inhibition of VEGF binding to Flt-1 [4]: inhibition of VEGF binding; also recorded: inhibits binding

Molecule: GVQEDVSSTLGSWVLLPFHRGTRLSVWVT (also: biotinylated form, place not given here) [G2211/2226]
- binding to VEGF165 (VEGF165 [1]): bind tightly
- binding to VEGF165 (VEGF165 [1]; listed as G2211/G2226): bind to VEGF165 selectively

Molecule: H2N-SGSSSGSGSGNALHWVCASNICWRTPWAGQLWRLVRLT-PEG-Bio (H-SGSSSGSGSGNALHWVCASNICWRTPWAGQLWRLVRLT-{PEG-biotin}; cysteine pairing not given here; reading uncertain) [Peptide 07-072]
- affinity towards D-VEGF in comparison to the non-matured sequence deriving from G2306 (D-VEGF [5]): vast improvement

Molecule: NALHWVCASNICWRSPWAGRLWGLVRL [Peptide G2306]
- inhibition in a VEGF-dependent cell growth assay [6]: effective dose-dependent inhibition

Molecule: H-SGSSSGSGSGNALHWVCASNICWRTPWAGQLWRLVRLT-{PEG-biotin} (cysteine pairing not given here; reading uncertain) [Peptide 07-072 (L-form; variant carrying all three hot spot mutations)]
- fold improvement of affinity (against the non-mutated sequence 07-007) [7]: > 10 >=fold
